# Measured values: US20240391931A1 (Bristol-Myers Squibb Company, priority 2021, published 2024)
# Tests used:
# HER2VC (G776delinsVC) = molecular target: T1, HER2VC (G776delinsVC) (Homo sapiens, UniProt P04626, G776C/INS775V); assay: HER2 signaling (pHER2) in NCI-H1781 cells; assay type: cell-based; details: 1.5 hr compound, 1% FBS
# T1 construct: NCI-H1781 cells which endogenously expresses a HER2 mutant protein; endogenous in cells; host or cells: NCI-H1781
# Procedure: (§1) In addition to the engineered cell lines, the following cell lines were used: BT474 (human breast carcinoma), N87 (human gastric carcinoma), NCI-H1781 (human lung adenocarcinoma), and A431 (human epidermoid carcinoma); all cell lines were obtained from the American Type Culture Collection (ATCC, Manassas, VA). NCI-H1781 were grown in complete RPMI 1640 (Life Technologies, Carlsbad, CA) supplemented with 15% fetal bovine serum (FBS, Life Technologies, Carlsbad, CA) and 1% Penicillin-Streptomycin (P/S, Life Technologies, Carlsbad, CA). N87 cells were grown in complete RPMI 1640 supplemented with 10% FBS and 1% P/S. BT474 and A431 cells were grown in DMEM (Life Technologies, Carlsbad, CA) supplemented with 10% FBS and 1% P/S. All cells were maintained and propagated in a humidified 5% CO2 incubator at 37° C.
# (§2) HER2 signaling was assessed in BT474 and N87 cell lines which endogenously overexpress the HER2 wildtype (WT) protein, in NCI-H1781 cells which endogenously expresses a HER2 mutant protein containing a VC insertion in the kinase domain (HER2VC or G776delinsVC), and in engineered cell lines transduced to express the Her2 mutant protein containing the YVMA insertion (Hek293-HER2YVMA and BEAS2B-HER2YVMA).
# (§3) BT474, N87, and NCI-H1781 were plated in 96-well tissue-culture treated plates (Corning Costar, Sigma-Aldrich) in full media and incubated overnight. Hek293-HER2YVMA and BEAS2B-HER2YVMA cells were plated in 96-well poly-D-lysine treated plates (BD Bioscience, San Jose, CA). For treatment with test compounds, the media was replaced with corresponding low serum media (1% FBS) containing test compound at 1.1, 0.37, 0.12, 0.041, 0.014, 0.005, 0.0014, 0.0005 μM or DMSO control (0.1%). Cells were incubated with compound for 1.5 hr at 37° C. After compound treatment, the media was removed and cells were lysed for 30 min on ice in complete MSD lysis buffer (prepared using MSD base lysis buffer (Meso-Scale Discovery) supplemented with cOmplete, EDTA-free Protease inhibitor cocktail (Roche), Phosphatase Inhibitor Cocktails 2 and 3 (Sigma-Aldrich), and 1 mM PMSF (Sigma-Aldrich)). Lysates were stored at −70° C. until further analysis.
# (§4) HER2 signaling was evaluated using phospho (Tyr1248)/total ErbB2 whole cell lysate MSD plates (Meso-Scale Discovery, Gaithersburg, MD). The phospho HER2 signal was normalized to total HER2 for each sample; results are reported as % DMSO control. The normalized data was fitted using a sigmoidal curve analysis program (Graph Pad Prism version 6) with variable Hill slope to determine EC50 values.
# (§5) The HER2 signaling results are provided in Table 4, under columns titled “BT474-pHER2 EC50”, “N87-pHER2 EC50”, and “NCI-H1781-pHER2 EC50”. Hek293-HER2YVMA ins fall under the heading “HEKYVMA-pHER2 EC50”, Ba/F3 HER2YVMA fall under the heading “Ba/F3 YVMA-pHER2 EC50” and BEAS2B-HER2YVMA fall under the heading “BEAS2B YVMA-pHER2 EC50”.
# BT474 cells = assay: Cellular proliferation in BT474 cells (CellTiter Glo); assay type: cell-based, human; details: 120 h, redosed after 72 h
# Procedure: as §1
# Cell proliferation in adherent cells was investigated in two HER2 amplified cell lines (BT474, N87), and a HER2VC expressing cell line (NCI-H1781). BT474, NCI-H1781, and N87 were plated in their appropriate growth media supplemented with either 10% FBS (BT474, N87) or 15% FBS (NCI-H1781) and 1% P/S in 96-well white clear-bottom tissue culture plates (Costar, Sigma-Aldrich). The starting cell densities were 3500, 5500, and 5000 cells for BT474, NCI-H1781, and N87 cells, respectively. An 8-point standard curve with varying cell densities (starting at 50000 cells and serially diluting down 2-fold) was prepared for each cell line and read 6 h after plating. Cells were allowed to attach overnight prior to compound treatment. Compound solutions were prepared by serially diluting test compounds in DMSO (Sigma-Aldrich), then diluting 500× in their corresponding serum free media. Cells were treated by adding a 1:1 volume of test compound to a final concentration of […], 0.004, 0.0014, or 0.0005 μM, in 0.1% DMSO and 5% FBS (for BT474 and N87) or 7.5% FBS (NCI-H1781). In BT474 and NCI-H1781, cell media was replaced and cells were redosed with fresh test compound solutions after 72 h. Viability was determined by CellTiter Glo (Promega, Madison, WI) after 72 h for N87 cells, and after 120 h for BT474 and […] cells. The results were converted to cell numbers using a standard curve; growth inhibition (GI50 values) were determined by Graph Pad Prism. […] The results are provided in Table 4, under columns titled “BT474-GI50”, “N87-GI50”, and “NCI-H1781-GI50”.
# [1] = molecular target: T2, HER2 wildtype (WT) protein (Homo sapiens, UniProt P04626); assay: HER2 signaling (pHER2 Tyr1248/total HER2 MSD) in N87 cells; assay type: cell-based; details: 1.5 hr compound, 1% FBS
# T2 construct: BT474 and N87 cell lines which endogenously overexpress the HER2 wildtype (WT) protein; endogenous in cells; host or cells: BT474, N87
# Procedure: as §1, §2, §3, §4, §5
# [2] = Homo sapiens, BT-474, BT474 cells
# T1 sequence (P04626 with tags, fused parts or gaps INS775V/G776C): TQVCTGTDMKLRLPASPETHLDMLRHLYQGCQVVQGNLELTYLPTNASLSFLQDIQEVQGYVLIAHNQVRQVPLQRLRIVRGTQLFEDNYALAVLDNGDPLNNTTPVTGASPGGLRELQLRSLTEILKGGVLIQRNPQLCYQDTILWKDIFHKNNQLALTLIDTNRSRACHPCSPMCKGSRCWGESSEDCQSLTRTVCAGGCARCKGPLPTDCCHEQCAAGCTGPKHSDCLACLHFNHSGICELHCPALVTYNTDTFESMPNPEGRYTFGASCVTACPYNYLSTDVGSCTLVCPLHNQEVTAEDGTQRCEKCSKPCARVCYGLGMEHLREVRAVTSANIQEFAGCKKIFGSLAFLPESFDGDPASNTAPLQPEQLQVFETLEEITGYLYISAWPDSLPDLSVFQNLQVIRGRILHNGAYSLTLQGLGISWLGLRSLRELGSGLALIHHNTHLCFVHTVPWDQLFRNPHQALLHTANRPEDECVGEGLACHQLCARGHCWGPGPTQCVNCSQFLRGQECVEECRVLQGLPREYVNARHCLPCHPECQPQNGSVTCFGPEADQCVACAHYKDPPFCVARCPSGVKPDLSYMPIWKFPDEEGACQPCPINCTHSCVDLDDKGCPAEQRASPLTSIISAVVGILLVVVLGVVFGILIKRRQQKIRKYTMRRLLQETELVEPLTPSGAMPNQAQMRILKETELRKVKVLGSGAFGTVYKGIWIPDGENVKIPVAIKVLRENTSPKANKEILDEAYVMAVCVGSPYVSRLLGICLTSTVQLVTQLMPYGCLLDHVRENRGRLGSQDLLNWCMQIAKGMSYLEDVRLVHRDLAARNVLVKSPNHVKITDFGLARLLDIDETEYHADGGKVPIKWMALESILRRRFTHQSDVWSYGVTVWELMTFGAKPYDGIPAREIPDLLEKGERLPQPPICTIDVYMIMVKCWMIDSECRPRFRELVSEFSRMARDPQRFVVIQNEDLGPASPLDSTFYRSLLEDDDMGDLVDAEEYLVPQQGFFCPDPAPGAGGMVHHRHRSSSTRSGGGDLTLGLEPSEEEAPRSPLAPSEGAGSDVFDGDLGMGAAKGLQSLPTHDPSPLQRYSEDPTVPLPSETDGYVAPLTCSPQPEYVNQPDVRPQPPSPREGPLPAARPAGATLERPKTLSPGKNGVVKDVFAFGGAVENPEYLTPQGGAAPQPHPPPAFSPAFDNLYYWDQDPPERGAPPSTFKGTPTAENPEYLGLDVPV
# T2 sequence (P04626 23-1255): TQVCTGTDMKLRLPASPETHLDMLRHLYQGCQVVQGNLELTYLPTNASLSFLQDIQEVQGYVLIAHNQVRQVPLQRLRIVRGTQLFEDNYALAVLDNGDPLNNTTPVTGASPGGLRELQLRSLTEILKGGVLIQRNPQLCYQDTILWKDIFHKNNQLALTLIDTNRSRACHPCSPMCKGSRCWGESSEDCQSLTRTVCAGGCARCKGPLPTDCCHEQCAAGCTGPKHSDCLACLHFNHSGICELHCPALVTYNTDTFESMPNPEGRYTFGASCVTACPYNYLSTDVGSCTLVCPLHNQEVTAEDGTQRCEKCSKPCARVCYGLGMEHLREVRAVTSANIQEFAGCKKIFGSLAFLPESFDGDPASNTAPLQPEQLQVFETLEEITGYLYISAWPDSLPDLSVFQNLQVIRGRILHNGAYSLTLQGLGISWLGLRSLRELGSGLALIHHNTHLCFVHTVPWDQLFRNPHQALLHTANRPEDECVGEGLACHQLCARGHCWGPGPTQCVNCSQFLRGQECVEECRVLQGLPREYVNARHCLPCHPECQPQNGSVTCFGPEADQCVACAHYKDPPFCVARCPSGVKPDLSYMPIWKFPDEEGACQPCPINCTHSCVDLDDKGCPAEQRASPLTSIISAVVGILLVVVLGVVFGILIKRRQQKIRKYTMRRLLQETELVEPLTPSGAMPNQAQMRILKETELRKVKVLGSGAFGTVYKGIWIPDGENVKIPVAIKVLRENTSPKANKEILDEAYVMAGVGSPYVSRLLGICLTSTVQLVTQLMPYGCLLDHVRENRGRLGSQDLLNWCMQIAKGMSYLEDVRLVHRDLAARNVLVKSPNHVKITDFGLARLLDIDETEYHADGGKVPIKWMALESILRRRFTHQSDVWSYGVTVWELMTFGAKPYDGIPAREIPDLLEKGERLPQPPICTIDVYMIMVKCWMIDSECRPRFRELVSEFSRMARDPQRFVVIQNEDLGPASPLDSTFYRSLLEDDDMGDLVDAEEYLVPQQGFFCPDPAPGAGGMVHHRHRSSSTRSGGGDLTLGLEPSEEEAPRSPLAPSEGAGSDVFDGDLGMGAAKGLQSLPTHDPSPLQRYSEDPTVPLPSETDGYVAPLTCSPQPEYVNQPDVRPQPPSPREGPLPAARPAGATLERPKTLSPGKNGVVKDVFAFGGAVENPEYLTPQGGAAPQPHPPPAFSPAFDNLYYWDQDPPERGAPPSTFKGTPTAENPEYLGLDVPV
SMILES,EC50 (HER2VC (G776delinsVC)),GI50 (BT474 cells; [2]),EC50 [1],GI50 (BT474 cells; BT474 cells)
Cc1ccc(Oc2ccc(Nc3ncnc4sc5c(c34)CCN(C(=O)/C=C/CN(C)C(C)(C)C)C5)cc2C)cn1 [Compound 33],< 100 nM,< 100 nM,< 100 nM,–
Cc1ccc(Oc2ccc(Nc3ncnc4sc5c(c34)CCN(C(=O)/C=C/CN3CC4C(CO)C4C3)C5)cc2C)cn1 (centres unmarked) [Compound 34],< 100 nM,< 100 nM,< 100 nM,–
Cc1ccc(Oc2ccc(Nc3ncnc4sc5c(c34)CCN(C(=O)/C=C/CN3CCCOCC3)C5)cc2C)cn1 [Compound 42],–,< 100 nM,–,–
"COc1ccc(Oc2ccc(Nc3ncnc4sc5c(c34)CCN(C(=O)/C=C/CN(C)C)C5)cc2C)cn1 [Compound 95, (E)-4-(Dimethylamino)-1-(4-((4-((6-methoxypyridin-3-yl)oxy)-3-methylphenyl)amino)-5,6-dihydropyrido[4′,3′:4,5]thieno[2,3-d]pyrimidin-7(8H)-yl)but-2-en-1-one]",< 100 nM,< 100 nM,< 100 nM,–
"Cc1ccc(Oc2ccc(Nc3ncnc4sc5c(c34)C(C)CN(C(=O)/C=C/CN(C)C)C5)cc2C)cn1 (centres unmarked) [Compound 98, (E)-4-(dimethylamino)-1-(5-methyl-4-((3-methyl-4-((6-methylpyridin-3-yl)oxy)phenyl)amino)-5,8-dihydropyrido[4′,3′:4,5]thieno[2,3-d]pyrimidin-7(6H)-yl)but-2-en-1-one]",< 100 nM,< 100 nM,–,–
"Cc1ccc(Oc2ccc(Nc3ncnc4sc5c(c34)CN(C(=O)/C=C/CN(C)C)C5)cc2C)cn1 [Compound 99, (E)-4-(dimethylamino)-1-(4-((3-methyl-4-((6-methylpyridin-3-yl)oxy)phenyl)amino)-5,7-dihydro-6H-pyrrolo[3′,4′:4,5]thieno[2,3-d]pyrimidin-6-yl)but-2-en-1-one]",–,< 100 nM,–,–
"Cc1ccc(Oc2ccc(Nc3ncnc4sc5c(c34)CCN(C(=O)/C=C/CN(C)C)CC5)cc2C)cn1 [Compound 100, (E)-4-(dimethylamino)-1-(4-((3-methyl-4-((6-methylpyridin-3-yl)oxy)phenyl)amino)-8,9-dihydro-5H-pyrimido[5′,4′:4,5]thieno[2,3-d]azepin-7(6H)-yl)but-2-en-1-one]",< 100 nM,< 100 nM,< 100 nM,–

# Continued, values first:
EC50 (HER2VC (G776delinsVC)),GI50 (BT474 cells; [2]),EC50 [1],GI50 (BT474 cells; BT474 cells),SMILES
< 100 nM,< 100 nM,< 100 nM,–,"Cc1ccc(Oc2ccc(Nc3ncnc4sc5c(c34)C(C)CN(C(=O)C=CCN(C)C)C5)cc2C)cn1 (single isomer, unassigned) [Compound 105]"
< 100 nM,–,< 100 nM,< 100 nM,"Cc1ccc(Oc2ccc(Nc3ncnc4sc5c(c34)C(C)CN(C(=O)C=CCN(C)C)C5)cc2C)cn1 (single isomer, unassigned) [Compound 106]"
< 100 nM,–,–,–,"Cc1cc(Nc2ncnc3sc4c(c23)CCN(C(=O)/C=C/CN(C)C)C4)ccc1Oc1ccc2ncnn2c1 [Compound 3, (E)-1-(4-((4-([1,2,4]triazolo[1,5-a]pyridin-6-yloxy)-3-methylphenyl)amino)-5,8-dihydropyrido[4′,3′:4,5]thieno[2,3-d]pyrimidin-7(6H)-yl)-4-(dimethylamino)but-2-en-1-one]"
< 100 nM,–,–,–,"C=CC(=O)N1CCc2c(sc3ncnc(Nc4ccc(Oc5ccc6ncnn6c5)c(Cl)c4)c23)C1 [Compound 4, 1-(4-((4-([1,2,4]triazolo[1,5-a]pyridin-6-yloxy)-3-chlorophenyl)amino)-5,8-dihydropyrido[4′,3′:4,5]thieno[2,3-d]pyrimidin-7(6H)-yl)prop-2-en-1-one]"
< 100 nM,–,< 100 nM,–,"CN(C)C/C=C/C(=O)N1CCc2c(sc3ncnc(Nc4ccc(Oc5ccc6ncnn6c5)c(Cl)c4)c23)C1 [Compound 5, (E)-1-(4-((4-([1,2,4]triazolo[1,5-a]pyridin-6-yloxy)-3-chlorophenyl)amino)-5,8-dihydropyrido[4′,3′:4,5]thieno[2,3-d]pyrimidin-7(6H)-yl)-4-(dimethylamino)but-2-en-1-one]"
